Earlier results in patent publication US20050220810A1, “Anti-aging preparation” (Shiseido Company, Ltd., priority 2002, published 2005).

System: vascular endothelial cell HMVEC
Details: general statement on positive controls of TSP-1 induction; no test described

bFGF: fibroblast growth factor, a positive control of the TSP-1 inducing substance
induction of cell death in vascular endothelial cells: does not induce cell death
